According to patent US20120283321A1, “USE OF GAMBIEROL FOR TREATING AND/OR PREVENTING NEURODEGENERATIVE DISEASES RELATED TO TAU AND BETA-AMYLOID” (Universidade De Santiago De Compostela, priority 2009, published 2012):
Entries after “also recorded” stand apart in the source; their conditions may differ.

Tests used:
cortical neurons = assay: Cell viability, Alamar Blue fluorescence assay in primary cortical cultures; type: cell-based, mice; conditions: up to a concentration of 20 μM
From the text: (§1) In order to perform the experiments of the present invention, one of the following were used: an in vitro cortical neuron model with simultaneous overexpression of tau and β-amyloid obtained from an Alzheimer's disease model in triple transgenic mice (3×Tg−AD or 3×Tg), obtainable by means of the process explained in international application WO2003/053136 and provided by the holders of said application, or an in vitro cortical neuron model obtained from non-transgenic mice (No Tg). The triple transgenic neuronal model presents simultaneous overexpression of the human transgenes for presenilin (PS1M146V), the β-amyloid precursor protein (APPSwe) and the tau protein (tauP301L), which leads to an Alzheimer's model with overexpression of β-amyloid and hyperphosphorylation of tau.
(§2) The primary cortical cultures were obtained from 3×Tg−AD mice embryos of 15-17 days of gestation and the wild cultures were obtained from control non-3×Tg−AD mice embryos of the same strain. The effect of the compound used in this invention on the cell viability was determined by means of a fluorescence assay using the Alamar Blue viability indicator. In order to perform the assay, primary cortical cultures seeded in 96-well plates were used. The neuronal cells were incubated with the compound of the present invention, which was dissolved in dimethyl sulfoxide (DMSO) and added to the culture medium at different concentrations, and the effect thereof on the neuronal viability was determined at different times of treatment in vitro. The maximum concentration of gambierol evaluated in vitro was 20 μM and the concentration of Alamar Blue was 10%. The reaction volume used was 200 μl. The fluorescence was measured at wavelengths of 530 nm (excitation) and 590 nm (emission).

[1] = as above; type: cell-based, mice; conditions: mouse, primary cortical neuron cultures from mouse embryos, 72 hours in culture, mean ± standard error, three experiments, read-out: Viability of cortical neurons, % with respect to the control
From the text: as §1, §2

[2] = tested on: phosphorylated Tau at Thr 212 and Ser 214; assay: Western Blot of phosphorylated tau at Thr 212 and Ser 214 (AT100 antibody) in cortical neurons from triple transgenic mice; type: cell-based; conditions: 10 μM gambierol between days 3 and 7 of culture; 3×Tg cultures; p<0.05, n=3
From the text: (§3) In order to perform the experiments of the present invention, one of the following were used: an in vitro cortical neuron model with simultaneous overexpression of tau and β-amyloid obtained from an Alzheimer's disease model in triple transgenic mice (3×Tg−AD or 3×Tg), obtainable by means of the process explained in international application WO2003/053136 and provided by the holders of said application, or an in vitro cortical neuron model obtained from non-transgenic mice (No Tg). […]
(§4) In order to determine the effect of the compound of the present invention on the expression of tau and β-amyloid, Western Blot techniques were used. […] For the Western Blot studies, the protein expression was evaluated using the primary antibodies anti-β-amyloid 6E10 at a 1:500 dilution, anti-Tau AT8 (phosphorylated Tau at Ser 202, 1:1000 dilution) and anti-Tau AT100 (phosphorylated Tau at Thr 212 and Ser 214, 1:1000 dilution). […]
(§5) For the Western Blot assays, the neuronal cultures treated with the compound of the present invention were washed with cold PBS and lysed in 50 mM Tris-HCl buffer (pH 7.4), which contains 150 mM NaCl, 1 mM EDTA, 1% Triton X-100, 2 mM DTT, 2.5 mM PMSF, 40 mg/ml aprotinin, 4 mg/ml leupeptin, 5 mM NaF, 1 mM Na3VO4, 1 mg/ml pepstatin A and 1 mg/ml benzamidine. The total protein concentration was determined by Bradford's method, using bovine albumin as the standard. […]

[3] = tested on: phosphorylated Tau at Ser 202; assay: Western Blot of phosphorylated tau at Ser 202 (AT8 antibody) in cortical neurons from triple transgenic mice; type: cell-based; conditions: 10 μM gambierol between days 3 and 7 of culture; 3×Tg cultures; p<0.05, n=3
From the text: as §3, §4, §5

[4] = tested on: extracellular β-amyloid peptide (β-amyloid 1-42 or β-amyloid 1-40); assay: ELISA of extracellular β-amyloid in culture medium of cortical neurons; type: cell-based, mice; conditions: triple transgenic cultures treated with gambierol compared to those not treated
Protocol: The levels of extracellular β-amyloid in the culture medium of cortical neurons obtained from triple transgenic mice or from control mice treated with gambierol were determined by means of commercial ELISA kits for the detection of β-amyloid 1-42 or β-amyloid 1-40, following the manufacturer's recommended instructions (Covance). These kits are composed of plates treated with antibodies which capture the β-amyloid peptide at the amino-terminal end thereof. The standards with known quantities of β-amyloid, and the culture medium collected from the neuronal preparations with unknown quantities of β-amyloid, were added to the wells and incubated. The plates were washed in order to eliminate the unbound peptide and incubated for 2 hours in the presence of an antibody that binds to the carboxyl-terminal end of the β-amyloid peptide. Subsequently, the plates were washed and incubated with a peroxidase-conjugated secondary antibody. […] The optical density was measured by the absorbance at 495 nm, and a straight-line pattern was obtained (FIG. 4) with the quantities of β-amyloid added, wherefrom the quantity of β-amyloid in the culture medium collected from the neuronal preparations treated with the compounds of the present invention could be extrapolated (FIG. 5).

β-amyloid = assay: Western Blot of intracellular β-amyloid (6E10 antibody) in cortical neurons from triple transgenic mice; type: cell-based; conditions: 10 μM gambierol between days 3 and 7 of culture; 3×Tg-AD neocortical cultures
From the text: as §3, §4, §5

[5] = tested on: phosphorylated tau at residue Ser 202; assay: Western Blot of baseline phosphorylated tau at Ser 202 in control neurons from non-transgenic mice; type: cell-based
Protocol: (§6) In order to determine the effect of gambierol on the baseline phosphorylation of tau, Western Blot techniques were used. An in vitro cortical nueron model obtained from non-transgenic mice was used. The neuronal cultures and the processing of the samples were performed in the same manner as in the preceding example. The data obtained were corrected with the quantity of β-actin as a function of the protein content of the samples.

total tau = assay: Western Blot of baseline total tau (Tau46 antibody) in control neurons from non-transgenic mice; type: cell-based
Protocol: as §6

[6] = 10 μM gambierol, mean ± standard error, two experiments

SMILES: C=CC/C=C\C=C/C1OC2CC3OC4CCC5OC6CC7(C)OC8(C)C(O)CC(CCCO)OC8CC7OC6CC5OC4(C)CC3(C)OC2C=CC1(C)O (stereo not drawn) [gambierol]
- Effect on cell viability of cortical neuronal cultures (in words) (cortical neurons): does not cause a reduction in the viability; also recorded: did not modify the cell viability
- viability at 72 h, 0.25 μM ([1]; 0.25 μM gambierol): 103 ± 5.2%
- viability at 72 h, 0.5 μM ([1]; 0.5 μM gambierol): 110 ± 1.4%
- viability at 72 h, 1 μM ([1]; 1 μM gambierol): 105 ± 6.3%
- viability at 72 h, 5 μM ([1]; 5 μM gambierol): 106 ± 4.7%
- viability at 72 h, 10 μM ([1]; 10 μM gambierol): 105 ± 5.8%
- viability at 72 h, 20 μM ([1]; 20 μM gambierol): 102 ± 3.8%
- Phosphorylated tau at Thr 212 and Ser 214 (AT100, Western Blot), in words [2]: significant decrease; also recorded: reduces
- Phosphorylated tau at Ser 202 (AT8, Western Blot), in words [3]: significant decrease; also recorded: reduces
- Levels of extracellular β-amyloid peptide secreted into the culture medium (in words) [4]: decrease
- Overexpression of intracellular β-amyloid (6E10, Western Blot), in words (β-amyloid): significant decrease; also recorded: reduces
- Baseline level of phosphorylated tau at residue Ser 202 in control neurons (in words) [5]: did not affect
- Levels of phosphorylated tau at residue Ser 202 in control neurons, % with respect to the control [5, 6]: 107 ± 8.1%
- Baseline quantity of total tau in control neurons (in words) (total tau): did not affect
- Baseline levels of total tau in control neurons, % with respect to the control (total tau; [6]): 111 ± 3.9%
